Results on one compound are retold here after US7141585B2 (dated 2006).

A word on the melting point: it is the temperature of the solid-liquid transition. Regarding `CCOC(=O)c1c(Cc2cc(Cl)cc(Cl)c2)c(C)nn1CCO`, the melting point was in the range of 105.8 to 107.5 °C.
